How the values were obtained:
[1] = (§1) After a 3-day incubation at 37° C. cell viability was determined by the MTT method as described by Pauwels et al. (J. Virol. Methods 1988, 20, 309-321).To determine the cytotoxicity, cells were seeded at an initial density of 1×10^6 cells/mL in 96 well plates containing Minimum Essential Medium with Earles's salts (MEM-E), L-glutamine, 1 mM sodium pyruvate and 25 mg/L kanamycin, supplemented with 10% fetal bovine serum. Cell cultures were then incubated at 37° C. in a humidified 5% CO2 atmosphere in the absence or presence of serial dilutions of test compounds. Cell viability was determined by the MTT method.; assay type: cell-based
[2] = as §1; assay type: cell-based; remark: listed apart in the source

Measured: EC50

CC(C)OC(=O)[C@H](C)N[P@](=O)(OCC1O[C@@H](n2ccc(=O)[nH]c2=O)[C@](C)(F)[C@@H]1O)Oc1ccccc1 (some centres undefined)
> 100 µM: [1] | [1]; 72 h | [2] | [2]; BHK-21, 72 h

From ChEMBL document CHEMBL5728174 (2020)
